Reference: patent US7371780B2, “Use of calphostin C to treat drug-resistant tumor cells” (priority 2003, dated 2008)
pIC50: −log10 of the molar value.

Experiments:
[1] = system: MCF-7DOX cells; experiment: Cytoplasmic shrinkage by hematoxylin/eosin staining, MCF-7DOX; format: cell-based, human
Protocol: (§1) For staining with hematoxylin and eosin, cells were grown in a six-well culture plate with each well containing a Snowcoat X-Tra™ microscope slide (Surgipath Laboratories, MB) immersed in 3 ml of H21 medium. When the cells reached 50% confluence, they were treated with 0-300 nM calphostin C, followed by a 2 hour exposure of the cultures to fluorescent light as described above. After light activation, the cells were placed in a 37° C. humidified incubator with 5% CO2 and incubated for an additional 22 hours. The cells were then stained with hematoxylin and eosin using a previously described procedure. Briefly, the media was removed from cell cultures and the cells that remained adhered to the slides were washed with PBS, fixed in formalin:acetone (1:2) for 2 min, and allowed to air dry for 10 min. After washing with distilled water, 250 μl of hematoxylin solution (BDH Chemicals, Toronto, ON) was placed on each slide and allowed to incubate with the cells for 5 min. The slides were then washed with distilled water, Scott's tap water (20 g MgSO4.7H2O, 1.5 g NaHCO3 in 1 L H2O), and a final wash with distilled water. The cells on the slides were then stained for 5 min in 250 μl of eosin solution (100 ml of 1% eosin, 10 ml of 1% phyloxine, 4 ml of glacial acetic acid, and 780 ml of 95% ethanol). The cells were then dehydrated by washing three times in 95% ethanol and twice in 100% ethanol. The small slide was then mounted on a standard microscope glass slide, and 10 randomly selected fields were viewed at 100× magnification and photographed. For each concentration of calphostin C, the total number of dead cells in each field was ascertained and expressed relative to the total number of cells in the field.

[2] = system: MES-SA human uterine sarcoma cells; experiment: Death and cytoplasmic vacuolization, MES-SA; format: cell-based; settings: data not shown
[3] = system: MCF-7 cells; experiment: Clonogenic assay, MCF-7 cells; format: cell-based, human; settings: 24 h drug, calphostin C light-activated 2 h, read-out: IC50 (concentration required to kill or inhibit the growth of 50% of cells)
Protocol: The breast cancer cell line MCF-7 (lot HTB-22) was obtained from the American […] (ATCC) and maintained in Dulbecco's H21 medium (MEM) supplemented with 10% Fetal Bovine Serum (FBS) (HyClone, Logan, Utah) in a humidified atmosphere containing 5% CO2 at 37° C. To establish drug resistant cell lines, MCF-7 cells were grown in the presence of either paclitaxel or doxorubicin, beginning at a concentration 1000-fold below that required to kill 50% of the cells (the IC50). The drug concentration was increased 3-fold every two weeks (two passages), with an aliquot of the cells removed for storage in liquid nitrogen before each increase in concentration. Dose escalation continued until all cells died, after which the cells able to tolerate the highest concentration of drug were thawed for subsequent study. In this way, paclitaxel-resistant (MCF-7TAX) and doxorubicin-resistant (MCF-7DOX) cell lines were established. The IC50 for each drug was determined using a clonogenic assay as outlined below. The drug resistant cells were kept in culture in the presence of the maximally tolerated drug dose. Before each experiment, the cell lines were grown for two days in the absence of drug after which fresh medium containing either calphostin C (Sigma Laboratories, Oakville, ON), doxorubicin (Adriamycin PFS®, USP, Mississauga, ON) or paclitaxel (Taxol, Bristol-Myers Squibb, Montreal, QC) was added at the concentrations indicated.
The sensitivity of MCF-7, MCF-7TAX and MCF-7DOX cells to calphostin C, paclitaxel or doxorubicin was determined using a clonogenic assay. Briefly, 2.5×10^5 cells were seeded into 25 cm^2 tissue culture flasks in Dulbecco's H21 medium supplemented with 10% FBS. The cells were allowed to grow overnight, after which the medium was removed and replaced with medium containing varying concentrations of paclitaxel, doxorubicin, or calphostin C (after 2 hours of light exposure to activate the molecule). […] The colonies present in 5 randomly selected fields were then counted by visual inspection. […]

[4] = system: MCF-7TAX cells; experiment: Cytoplasmic shrinkage by hematoxylin/eosin staining, MCF-7TAX; format: cell-based, human
Protocol: as §1

[5] = system: MCF-7 cells; experiment: Cytoplasmic shrinkage by hematoxylin/eosin staining, MCF-7; format: cell-based, human
Protocol: as §1

[6] = system: mouse B16BL6 melanoma cells; experiment: Death and cytoplasmic vacuolization, B16BL6; format: cell-based; settings: data not shown

For `COc1c(C[C@@H](C)OC(=O)Oc2ccc(O)cc2)c2c3c(C[C@@H](C)OC(=O)c4ccccc4)c(OC)c(=O)c4c(O)cc(OC)c(c5c(OC)cc(O)c(c1=O)c52)c43` [calphostin C], the “concentration at which cytoplasmic shrinkage was first observed” value [1] was 100 nM, the “concentration required for complete cytoplasmic shrinkage” value (“concentration required” below) [1] was 300 nM and the “percentage of cells exhibiting cytoplasmic shrinkage” value (“percentage” below) ([1]; 25 nM calphostin C) was “remained unchanged”. The “induction of death and cytoplasmic vacuolization” value [2] was “induce both death and cytoplasmic vacuolization”, the pIC50 [3] was 7.88 and the “concentration required” value [4] was 300 nM. For the same compound, the “percentage” value ([4]; 25 nM calphostin C) was “remained unchanged”, the “percentage” value ([4]; 50 nM calphostin C) was 23% and the “concentration required” value [5] was 300 nM. The “percentage” value ([5]; 25 nM calphostin C, 2 h light, 24 h) was 20%, the “percentage” value ([5]; 50 nM calphostin C) was 35% and the “induction of death and cytoplasmic vacuolization” value [6] was “induce both death and cytoplasmic vacuolization”.
